# Assays:
# Type in all cases: cell-based, human
# [1] = system: HaCaT cells; test: Co-editing of LRRC8A and EMX1 with blasticidin enrichment, ICE analysis; conditions: for EMX1 editing: after blasticidin
# Procedure: (§1) To further increase the editing rate of the gene of interest, the two single sgRNA cassettes of the gene of interest and the LRRC8A or LRRC8D selection gene (FIG. 6A) can be transcriptionally coupled, for example by coupling the sgRNAs via ribozyme structures (FIG. 6B) or by other processing sites such as tRNAs (FIG. 6C). […] Then HaCaT cells were transfected with the corresponding expression plasmids and cells were treated and analyzed as described in Example 4.
# The initial editing rates for EMX1 and LRRC8A were determined 48 h post-transfection and were very low (<5%) (FIG. 7A). Treatment with blasticidin led to drastic increase of LRRC8A editing (>95%), which was equally high independent of the sgRNA expression construct showing efficient enrichment of LRRC8A-KO cells using blasticidin (FIG. 7A). When sgRNA expression cassette of EMX1 was independent from that of LRRC8A, EMX1 editing was increased from 3 to 7%. Strikingly, by coupling the two sgRNA cassettes of EMX1 and LRRC8A via ribozymes, EMX1 editing could drastically be increased from 7% to >70% (FIG. 7A). This clearly proves that the above-described strategy to increase low editing events by transcriptional coupling is functioning.
# [2] = system: non-pure LRRC8A−/− HaCaT cell clone; test: Removal of wildtype cells from a mixed LRRC8A−/− cell pool, PCR of genomic DNA; conditions: single pulse 4 μg/ml blasticidin for 24 h, then blasticidin-free medium
# Source text: Creating single cell clones is one of the most challenging tasks in all fields of genome engineering. […] Therefore it was of interest to analyze whether the LRRC8A-mediated blasticidin resistance could be a very easy method to get rid of non-edited wildtype cells. To mimic this issue, a non-pure LRRC8A^−/− HaCaT cell clone, which contained the desired 300 bp LRRC8A genomic deletion as well as few undesired HaCaT wildtype cells, was chosen and either treated or not treated with a single blasticidin pulse (4 μg/ml blasticidin applied for 24 h) (FIG. 3A). Then cultivation medium was changed and cells were cultivated in absence of blasticidin. Genomic DNA was isolated and PCR was performed to visualize the genomic deletion of LRRC8A in knock-out cells and/or the non-deleted, intact LRRC8A gene of wildtype cells (FIG. 3B). […] Strikingly, treatment with blasticidin prevented this effect: No
# This also proves that disruption of the LRRC8A-mediated blasticidin resistance can not only be used to create blasticidin-resistant cells but that it is also suited to get rid of unwanted wildtype cells during genome engineering.
# [3] = system: HaCaT cells; test: Co-editing of LRRC8D and EMX1 with blasticidin enrichment, Sanger sequencing and ICE analysis; conditions: transfected HaCaT cells treated with blasticidin
# Procedure: The functionality of the above-described co-editing system was tested by using EMX1 (Empty Spiracles Homeobox 1) as gene-of-interest and LRRC8D as blasticidin resistance-mediating gene. EMX1 is a commonly used reference gene in CRISPR-based research^23. Instead of LRRC8A, another member of the LRRC8 gene family, LRRC8D, was used. First, the coding sequences of two sgRNAs targeting the LRRC8D and EMX1 gene were cloned into an expression plasmid containing the coding sequence for the Cas9 nuclease (FIGS. 4 and 5A). Then HaCaT cells were transfected with the expression plasmids and cells were either treated or not treated with blasticidin (FIG. 5A). After several days of cultivation, genomic DNA was extracted and used in PCR to amplify the genomic-region of the LRRC8D and EMX gene. The PCR products were analyzed by Sanger sequencing and subsequent ICE (Inference of CRISPR Edits)^24 analysis to determine the genetic modifications occurring in the treated and non-treated HaCaT cells (FIG. 5B). Strikingly, when the transfected HaCaT cell pool was not treated with blasticidin, no editing event could be detected; neither in the EMX1 nor in the LRRC8D gene.
# [4] = system: HEK293 cells; test: HR-dependent LRRC8A gene disruption, cell growth under blasticidin; conditions: HEK293, Cas9 + intronic LRRC8A sgRNA, treated 72 h after transfection
# Procedure: Next, it was tested whether the above-described strategy (Example 6, FIG. 8) can indeed be employed to enrich HR-capable cells (or conversely to get rid of cells which have performed NHEJ). First, a HDR donor template was designed (FIG. 9A), which creates a modified, non-functional LRRC8A sequence after successful insertion via HR. The HDR donor template is composed of left and right HR flaks, which are complementary to intronic and exon-3 LRRC8A sequence, respectively. The exon-3 sequence used in the HDR donor template carries two modifications to create non-functional LRRC8A: (i) Mutation of the translational start site ATG to ATT and (ii) deletion of one nucleotide (Guanin) to create LRRC8A frameshift. To also test whether foreign or recombinant DNA sequences can be inserted into the LRRC8A locus as well, the restriction site for the Kpnl restriction enzyme was included into the HDR donor template. To prevent the repeated cutting of the Cas9 enzyme (which would prevent successful HDR donor template insertion), the spacer sequence of the sgRNA (which is used to induce the DSB at the intronic region of LRRC8A) was modified by mutating the PAM motif and the seed region. […]
# [5] = system: HaCaT wildtype keratinocytes; test: Blasticidin tolerance, growth determined microscopically; conditions: 4 μg/ml blasticidin, HaCaT-WT cells
# Procedure: (§2) In order to determine the tolerance against the antibiotic blasticidin, HaCaT wildtype keratinocytes (VVT; Boukamp, et al.1988, The Journal of Cell Biology, 106(3):761-771.) as well as HaCaT-LRRC8A^−/− knock-out (KO) cells were treated with different concentrations of blasticidin and growth was determined microscopically for several days (FIG. 2). […] As previously shown for KBM-7cells^10, the LRRC8D subunit is also required for blasticidin uptake in HaCaT cells (FIG. 2A).
# [6] = system: HaCaT-LRRC8A−/− knock-out (KO) cells; test: as above
# Procedure: as §2
# [7] = system: HEK293 cells; test: Co-editing of LRRC8A and EMX1 with blasticidin enrichment, ICE analysis; conditions: HEK293, after blasticidin
# Procedure: as §1
# To confirm the suitability of the co-editing strategy of the present invention also for a different cell type, the same experimental setup was applied for HEK293 cells (FIG. 7B). Again, initial editing of the gene of interest EMX1 was also very low in HEK293 cells. By applying the co-editing strategy as presented above for HaCaT cells, it was also possible to increase the editing rates to approx. 60% for EMX1 and approx. 90% for LRRC8A in HEK293 cells (using uncoupled sgRNA expression constructs) (FIG. 7B).
# Again, by transcriptional coupling it was possible to further increase editing rates for EMX1 from 62% to 74% (FIG. 7B).
# [8] = system: HaCaT knock-out cells devoid of LRRC8D; test: Blasticidin tolerance of LRRC8D knock-out cells; conditions: LRRC8D gene knock-out
# Source text: FIG. 2: (A) Microscopic analysis of cytotoxic effect of blasticidin on HaCaT wildtype keratinocytes (VVT) (upper panel), HaCaT knock-out cells devoid of LRRC8A (LRRC8A^−/− KO) and HaCaT knock-out cells devoid of LRRC8D (LRRC8D^−/− KO). (B) Graphical display of survival rate of HaCaT wildtype vs. LRRC8A knock-out cells in presence of blasticidin.
# as §2
structure (smiles),measurement,setting,value
CN(CC[C@H](N)CC(=O)N[C@H]1C=C[C@H](n2ccc(N)nc2=O)O[C@@H]1C(=O)O)C(=N)N [blasticidin],LRRC8A editing,"[1]; after blasticidin treatment, independent of sgRNA expression construct",> 95%
same,EMX1 editing,[1]; EMX1 sgRNA cassette independent from LRRC8A,7%
same,EMX1 editing,[1]; sgRNA cassettes coupled via ribozymes HDV/HH,> 70%
same,PCR products of wildtype and knock-out cells after blasticidin treatment,[2],only the PCR product of the pure knock-out cell clone was detectable
same,editing percentage of the LRRC8D gene,[3],90%
same,editing percentage of the co-edited EMX1 gene,[3],6%
same,cell growth under blasticidin treatment,[4]; HDR donor template included,cell growth was observed
same,cell growth under blasticidin treatment,[4]; HDR template omitted,no cell growth was observed
same,growth of cells in presence of blasticidin,[5],not able to grow anymore and died
same,survival of cells under blasticidin treatment,[6],survived the treatment
same,editing rate for EMX1,[7]; transcriptional coupling,74%
same,editing rate for LRRC8A,[7]; uncoupled sgRNA expression constructs,approx. 90%
same,blasticidin resistance of LRRC8D knock-out cells,[8],resistant
